US8822528B2, “Monensin derivatives for the treatment and prevention of protozoal infections” (Merial Limited, priority 2010, dated 2014)

How the values were obtained:
Eimeria tenella = assay: In vitro efficacy against Eimeria tenella in infected MDBK cell culture (schizonts/merozoites counted microscopically); format: cell-based; design: Activity in inhibiting development of Eimeria tenella in vitro (schizonts and merozoites) / Presence of schizonts/merozoites (microscopic observation, picture): dose or concentration left out as unconfirmed; details: for Inhibition of development of Eimeria tenella in cell culture (formation of merozoites): five different concentrations in the presence of the parasite (FIG. 30); for Activity in inhibiting development of Eimeria tenella in vitro (schizonts and merozoites) / Presence of schizonts/merozoites (microscopic observation, picture): second series; for Activity in inhibiting development of Eimeria tenella in vitro (schizonts and merozoites): one concentration of 3.125 (FIG. 30A); for Presence of schizonts/merozoites (microscopic observation, picture): 3.125, FIG. 30B/30C; for Activity towards the parasite Eimeria tenella (summary): summary of in vitro testing of fifteen polyether ionophores; for Development of Eimeria tenella in vitro / Inhibition of the parasite Eimeria tenella: third series; for Development of Eimeria tenella in vitro: at very low concentrations (<0.39 μg/μL) (FIG. 31B); for Inhibition of the parasite Eimeria tenella: at low concentrations (FIG. 31B)
Experimental: Once the IC50 concentration was determined, the test was performed on infected cells. The working concentration chosen was always lower than IC50.
After having cultured cells at 40° C. in each well of a 96-well plate, they were treated with a specific concentration (<IC50, allowing the inhibition of parasites in over 50% of cells) of polyether ionophore. Then, the sporozoites of Eimeria tenella were excysted and the cells infected with purified sporozoites. After incubation for 24 hrs at 40° C., the medium was changed. The efficiency of molecules was evaluated microscopically after 40 hrs and 48 hrs. The release of merozoites was noted (FIG. 30B). Thus, in explicit cases, the merozoites released were counted; in ambiguous cases, the quantitative PCR ([…]) will be used. For each test, a positive control of treatment (with monensin 1a) and a positive control of infection was made.

MDBK cells = assay: Cytotoxicity testing / IC50 determination on MDBK cells (Cell Titer, tetrazolium to formazan, 96-well); format: cell-based, Bovine; details: summary statement
Description: Cytotoxicity testing. For the prevention and the treatment, a compound is considered effective when it is non toxic or its toxicity is low for host cells but high for the target (parasite). For cytotoxicity testing and determination of the IC50, the in vitro model is one of the best methods, enabling this type of testing to be carried out directly on cells alone without fear of fatal consequences as in vivo. The IC50 is the maximum concentration at which at least 50% of cells survive following a treatment. All concentrations above it are excluded for the test; values below it, on the other hand, can be tested in order to determine the concentration that will totally or partially eliminate the parasite or inhibit its development. This test consists in testing several concentrations on cell culture in 96-well plate; the concentrations are tested in duplicate, and the cytotoxicity of the molecules is evaluated with special kits based on an oxidation-reduction reaction at the cell-machinery level (mitochondria).
As in the MTT kit (Promega), the reagent used is the tetrazolium salt MTT (3-[4,5-dimethylthiazol-2-yl]-2,5-diphenyltetrazolium bromide). The tetrazolium ring that it contains is reduced to formazan by the mitochondrial succinate dehydrogenase of active living cells. The color of the medium thus changes from yellow to purplish-blue. The intensity of this color is proportional to the number of living cells present at the time of testing but also to their metabolic activity. The percentage of living cells is determined from the ratio between the absorbance for the test well and the absorbance for the control well (cells alone).
Initially, the inhibitory concentration IC50 was determined. It corresponded to the concentration of polyether ionophore allowing the viability of 50% of cells. Bovine cells were cultured and incubated for 24 hrs at 40° C. in the wells of a 96-well plate. Then, a fixed concentration ([…]) of polyether ionophore was added to each well. The cells were incubated at 40° C. for 24 hrs. 20 μL, of “Cell Titer” was added to each well. The cells were again incubated for 30 min to 1 hour at 40° C. before the plate was read in a plate reader at a wavelength of 490 nm (maximum absorption of the formazan). This reading determined the optical density (OD) of each well and allowed access to the percentage of inhibition. I50=(ODtreated/ODcontrol)×100 […]=[1−(ODtreated/ODcontrol)]×100.
FIG. 26 represents a 96-well plate after adding “Cell Titer”. The intensity of colours depends on the toxicity of the polyether ionophore tested. Increasing color intensity corresponded to increasing number of living cells. […]

## CC[C@@]1([C@@H]2O[C@@H]([C@H]3O[C@@](O)(CO)[C@H](C)C[C@@H]3C)C[C@@H]2C)CC[C@H]([C@]2(C)CC[C@]3(C[C@H](O)[C@@H](C)[C@@H]([C@@H](C)[C@@H](OC)[C@H](C)C(=O)O)O3)O2)O1 [Compound 1a, Monensin]
Eimeria tenella; first series
  Inhibition of development of Eimeria tenella in cell culture (formation of merozoites): inhibited the formation of merozoites at very low concentrations

## CCC1(C2OC(C3OC(O)(CO)C(C)CC3C)CC2C)CCC(C2(C)CCC3(CC(O)C(C)C(C(C)C(OC)C(C)C(=O)NCc4ccccc4)O3)O2)O1 (stereo not drawn) [Compound 3a, 1-benzylamidomonensine]
Eimeria tenella; first series
  Inhibition of development of Eimeria tenella in cell culture (formation of merozoites): did not appear to significantly inhibit

## CCC1(C2OC(C3OC(O)(CO)C(C)CC3C)CC2C)CCC(C2(C)CCC3(CC(O)C(C)C(C(C)C(OC)C(C)C(=O)NCc4ccc(C(=O)OC)cc4)O3)O2)O1 (stereo not drawn) [Compound 3b, 1-(4-methylbenzoate)methylene Amidomonensine]
Eimeria tenella; first series
  Inhibition of development of Eimeria tenella in cell culture (formation of merozoites): did not appear to significantly inhibit

## CCC1(C2OC(C3OC(O)(CO)C(C)CC3C)CC2C)CCC(C2(C)CCC3(CC(O)C(C)C(C(C)C(OC)C(C)C(=O)NCc4cccc(C(=O)OC)c4)O3)O2)O1 (stereo not drawn) [Compound 3c, 1-(3-methylbenzoate)methylene Amidomonensin]
Eimeria tenella
  Activity in inhibiting development of Eimeria tenella in vitro (schizonts and merozoites): no significant activity

## CCC1(C2OC(C3OC(O)(CO)C(C)CC3C)CC2C)CCC(C2(C)CCC3(CC(O)C(C)C(C(C)C(OC)C(C)C(=O)NC(C(=O)OC)c4ccc(F)cc4)O3)O2)O1 (stereo not drawn) [Compound 4c, Methyl 2′-(monensinamido)-2′-(4′-fluorophenyl)acetate]
Eimeria tenella
  Activity in inhibiting development of Eimeria tenella in vitro (schizonts and merozoites): no significant activity

## CCC1(C2OC(C3OC(O)(CO)C(C)CC3C)CC2C)CCC(C2(C)CCC3(CC(O)C(C)C(C(C)C(OC)C(C)C(=O)NCc4ccc(C(=O)O)cc4)O3)O2)O1 (stereo not drawn) [Compound 6a, 1-(benzoic acid)methylene Amidomonensine]
Eimeria tenella; first series
  Inhibition of development of Eimeria tenella in cell culture (formation of merozoites): did not appear to significantly inhibit

## CCC12CCC(O1)C1(C)CCC3(CC(O)C(C)C(O3)C(C)C(OC)C(C)C(=O)OCC3(O)OC(C(C)CC3C)C3CC(C)C2O3)O1 (stereo not drawn) [Compound 7, Monensin Lactone]
Eimeria tenella; first series, at high concentrations (FIG. 30)
  Concentration at which formation of merozoites was inhibited: greater than or equal to 12.5 g/μL

## CCC1(C2OC(C3OC(CO)(OC)C(C)CC3C)CC2C)CCC(C2(C)CCC3(CC(O)C(C)C(C(C)C(OC)C(C)C(=O)O)O3)O2)O1 (stereo not drawn) [Compound 8a, 25-Methoxymonensin]
Eimeria tenella
  Presence of schizonts/merozoites (microscopic observation, picture): absence of schizonts and merozoites
  Activity in inhibiting development of Eimeria tenella in vitro (schizonts and merozoites): very high efficacy
  Activity towards the parasite Eimeria tenella (summary): significant activity
Eimeria tenella; listed as EV 02058
  Presence of schizonts/merozoites (microscopic observation, picture): merozoites not present
MDBK cells
  Cytotoxicity (summary in words): very low cytotoxicities

## CCC1(C2OC(C3OC4(COC(=O)CO4)C(C)CC3C)CC2C)CCC(C2(C)CCC3(CC(O)C(C)C(C(C)C(OC)C(C)C(=O)O)O3)O2)O1 (stereo not drawn) [Compound 12, Oxo-dioxane Monensin]
Eimeria tenella
  Activity towards the parasite Eimeria tenella (summary): significant activity
  Development of Eimeria tenella in vitro: completely inhibited
MDBK cells
  Cytotoxicity (summary in words): very low cytotoxicities

## CCC12CCC(O1)C1(C)CCC3(CC(OC)C(C)C(O3)C(C)C(OC)C(C)C(=O)OCC3(OC)OC(C(C)CC3C)C3CC(C)C2O3)O1 (stereo not drawn) [Compound 14a, 7,25-dimethoxylactone]
Eimeria tenella
  Presence of schizonts/merozoites (microscopic observation, picture): merozoites present
  Activity in inhibiting development of Eimeria tenella in vitro (schizonts and merozoites): no significant activity

## CCC12CCC(O1)C1(C)CCC3(CC(=O)C(C)C(O3)C(C)C(OC)C(C)C(=O)OCC(=O)C(C)CC(C)C(=O)C3CC(C)C2O3)O1 (stereo not drawn) [Compound 18, Triacetone Lactone]
Eimeria tenella
  Inhibition of the parasite Eimeria tenella: did not inhibit

## CCC1(C2OC(C3OC(=O)C(C)CC3C)CC2C)CCC(C2(C)CCC3(CC(=O)C(C)C(C(C)C(OC)C(C)C(=O)O)O3)O2)O1 (stereo not drawn) [Compound 19, oxo-lactone Monensin]
Eimeria tenella
  Activity in inhibiting development of Eimeria tenella in vitro (schizonts and merozoites): significant efficacy
  Activity towards the parasite Eimeria tenella (summary): satisfactory and encouraging results
MDBK cells
  Cytotoxicity (summary in words): very low cytotoxicities

## CCC1(C2OC(C3OC4(COC(=O)CO4)C(C)CC3C)CC2C)CCC(C2(C)CCC3(CC(=O)C(C)C(C(C)C(OC)C(C)C(=O)O)O3)O2)O1 (stereo not drawn) [Compound 26, 7-oxo-monensin Oxodioxane]
Eimeria tenella
  Inhibition of the parasite Eimeria tenella: did not inhibit

## CCC1(C2OC(C3OC(CO)(OCC(=O)O)C(C)CC3C)CC2C)CCC(C2(C)CCC3(CC(O)C(C)C(C(C)C(OC)C(C)C(=O)O)O3)O2)O1 (stereo not drawn) [Compound 27, O-25-glycolic Acid Monensin]
Eimeria tenella
  Activity towards the parasite Eimeria tenella (summary): significant activity
  Development of Eimeria tenella in vitro: completely inhibited
MDBK cells
  Cytotoxicity (summary in words): very low cytotoxicities

## CCC1(C2OC(C(O)C(C)CC(C)C(=O)O)CC2C)CCC(C2(C)CCC3(CC(=O)C(C)C(C(C)C(OC)C(C)C(=O)O)O3)O2)O1 (stereo not drawn) [Compound 31, 7-oxo, 21-hydroxy, 25-acid Monensin]
Eimeria tenella; third series (FIG. 31B)
  Concentration at which significantly effective against the parasite: greater than 1.56 g/μL
Eimeria tenella
  Inhibition of the parasite Eimeria tenella: did not inhibit
